Reference: ChEMBL document CHEMBL1158286, “Molluscicidal Triterpenoid Glycosides of Dialium guineense” (1996)

System: Biomphalaria glabrata
Assay: Molluscicidal activity against Biomphalaria glabrata assessed as minimum concentration required to cause mortality measured after 24 hrs
Type: functional

## CC1(C)CC[C@]2(C(=O)O)CC[C@]3(C)C(=CC[C@@H]4[C@@]5(C)CC[C@H](O)C(C)(C)[C@@H]5CC[C@]43C)[C@@H]2C1 [OLEANOLIC_ACID]
  Activity: 0 ppm

## CC1(C)CC[C@]2(C(=O)O)CC[C@]3(C)C(=CC[C@@H]4[C@@]5(C)CC[C@H](O[C@@H]6O[C@H](C(=O)O)[C@@H](O)[C@H](O[C@@H]7OC[C@@H](O)[C@H](O)[C@H]7O)[C@H]6O)C(C)(C)[C@@H]5CC[C@]43C)[C@@H]2C1
  Activity: 4 ppm

## C[C@@H]1O[C@@H](O[C@@H]2[C@@H](O)[C@H](O[C@H]3CC[C@]4(C)[C@H]5CC=C6[C@@H]7CC(C)(C)CC[C@]7(C(=O)O)CC[C@@]6(C)[C@]5(C)CC[C@H]4C3(C)C)O[C@H](C(=O)O)[C@H]2O)[C@H](O)[C@H](O)[C@H]1O
  Activity: 4 ppm

## CC1(C)CC[C@]2(C(=O)O)CC[C@]3(C)C(=CC[C@@H]4[C@@]5(C)CC[C@H](O[C@@H]6OC[C@@H](O)[C@H](O)[C@H]6O)C(C)(C)[C@@H]5CC[C@]43C)[C@@H]2C1
  Activity: >16 ppm

## CC1(C)CC[C@]2(C(=O)O)CC[C@]3(C)C(=CC[C@@H]4[C@@]5(C)CC[C@H](O[C@@H]6O[C@H](C(=O)O)[C@@H](O)[C@H](O)[C@H]6O)C(C)(C)[C@@H]5CC[C@]43C)[C@@H]2C1
  Activity: 2 ppm
